Values joined by “and” are separate entries in the source; they are usually repeats but may differ in a detail not shown here. Identical values can stand only once.
Experiments:
[1] = target: T1, bacterial NAD synthetase enzyme (Bacillus subtilis, UniProt P08164); experiment: biochemical; type: biochemical
T1 sequence (P08164 2-272 limits assumed): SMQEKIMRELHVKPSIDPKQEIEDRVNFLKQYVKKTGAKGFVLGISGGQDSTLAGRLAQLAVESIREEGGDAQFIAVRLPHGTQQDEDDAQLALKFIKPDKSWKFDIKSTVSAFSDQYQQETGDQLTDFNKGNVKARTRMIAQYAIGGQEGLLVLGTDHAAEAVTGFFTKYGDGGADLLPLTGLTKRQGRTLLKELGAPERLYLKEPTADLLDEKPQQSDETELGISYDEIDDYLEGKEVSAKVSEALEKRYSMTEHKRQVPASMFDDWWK

[2] = tested on: Staphylococcus epidermitis; experiment: Bacterial growth inhibition screen in LB media (absorbance 595 nm), percent inhibition; conditions: S. epidermitis
[3] = compound at 0.2 mM (Table 312A)

Structure (SMILES)	% Inhibition [1, 3] [%]	% Inhibition ([2]; concentration screened 10 uM)	% Inhibition ([2]; concentration screened 100 uM) [%]	% Inhibition ([1]; compound at 0.1 mM (Table 314)) [%]
FC(F)(F)c1ccc2[nH]c(CCCCCCC[n+]3ccccc3)cc2c1 [Compound 364]	29.20	2.16%	–	–
c1ccc(Oc2ccc3[nH]c(CCCCC[n+]4cccc5ccccc54)cc3c2)cc1 [Compound 458]	15.72	22.77%	–	–
COC(=O)c1ccc[n+](CCCCn2ccc3cc([N+](=O)[O-])ccc32)c1 [Compound 9]	28.02	31.80%	–	–
CN(C)c1ccc(C(=O)OCCCCCCCCc2cc3cc(Oc4ccccc4)ccc3[nH]2)cc1 [Compound 620]	19.03	–	12.69	–
O=C(c1ccccc1)c1ccc2[nH]c(CCC[n+]3cccc4ccccc43)cc2c1 [Compound 462]	3.84	3.13%	–	–
O=C(OCCCCCCCCc1cc2cc(Oc3ccccc3)ccc2[nH]1)C(c1ccccc1)c1ccccc1 [Compound 659]	25.47	–	20.41	–
O=[N+]([O-])c1ccc2[nH]c(CCCCCCC[n+]3ccc4ccccc4c3)cc2c1 [Compound 550]	28.18	4.40%	–	–
FC(F)(F)c1ccc2cc(CCCCCC[n+]3ccc4ccccc4c3)[nH]c2c1 [Compound 507]	26.18	–	15.86	–
CCCCc1ccc2[nH]c(CCCC[n+]3ccc4ccccc4c3)cc2c1 [Compound 529]	15.50	10.15%	–	–
CC(C)c1ccc2[nH]c(CCCCCC[n+]3ccccc3)cc2c1 [Compound 321]	–	–	100.00	37.25
O=C(c1ccccc1)c1ccc2[nH]c(CCCCCC[n+]3cccc4ccccc43)cc2c1 [Compound 465]	7.92	8.08%	–	–
c1ccc(C(c2ccccc2)(c2ccccc2)c2ccc3[nH]c(CCC[n+]4cccc5ccccc54)cc3c2)cc1 [Compound 444]	–	5.85%	–	8.55
Fc1ccc2[nH]c(CCCCC[n+]3ccccc3)cc2c1 [Compound 344]	4.58	8.08%	–	–
c1ccc(-c2ccc3[nH]c(CCC[n+]4ccc5ccccc5c4)cc3c2)cc1 [Compound 540]	20.20	1.60%	–	–
O=C(OCCCCc1cc2cc(C(F)(F)F)ccc2[nH]1)c1cccnc1 [Compound 654]	2.11	25.20%	–	–
CC(C)c1ccc2[nH]c(CCCCOC(=O)C(c3ccccc3)c3ccccc3)cc2c1 [Compound 663]	15.43	–	44.28	–
Fc1cc(F)c2[nH]c(CCC[n+]3ccccc3)cc2c1 [Compound 300]	11.79	6.20%	–	–
CC(=O)c1ccc2[nH]c(CCCCC[n+]3ccccc3)cc2c1 [Compound 368]	–	–	91.36	21.10
FC(F)(F)c1ccc2cc(CCCC[n+]3cccc4ccccc43)[nH]c2c1 [Compound 397]	–	5.85%	–	4.51
Cc1ccc2[nH]c(CCCC[n+]3cccc4ccccc43)cc2c1 [Compound 403]	5.07	4.87%	–	–

Structure (SMILES)	% Inhibition [1, 3] [%]	% Inhibition ([2]; concentration screened 10 uM)	% Inhibition ([2]; concentration screened 100 uM) [%]	% Inhibition ([1]; compound at 0.1 mM (Table 314)) [%]
c1ccc(-c2ccc3[nH]c(CCC[n+]4cccc5ccccc54)cc3c2)cc1 [Compound 432]	13.21	8.91%	–	–
CC(=O)c1ccc2[nH]c(CCCCCCCC[n+]3ccc4ccccc4c3)cc2c1 [Compound 587]	56.47	–	100.00	–
c1ccc(-c2ccc3[nH]c(CCCCC[n+]4ccc5ccccc5c4)cc3c2)cc1 [Compound 542]	15.89	–	96.93	–
Fc1cc(F)c2[nH]c(CCCCCC[n+]3ccc4ccccc4c3)cc2c1 [Compound 519]	16.27	11.35%	–	–
CC(C)c1ccc2[nH]c(CCCCCC[n+]3ccc4ccccc4c3)cc2c1 [Compound 537]	10.69	5.43%	–	–
CC(C)c1ccc2[nH]c(CCCCCCC[n+]3ccc4ccccc4c3)cc2c1 [Compound 538]	40.95	43.05%	–	–
COC(=O)c1ccc2[nH]c(CCCCCCCC[n+]3cccc4ccccc43)cc2c1 [Compound 491]	8.24	11.14%	–	–
FC(F)(F)c1ccc2cc(CCC[n+]3cccc4ccccc43)[nH]c2c1 [Compound 396]	–	1.53%	–	3.64
Cc1ccc2[nH]c(CCCCCC[n+]3cccc4ccccc43)cc2c1 [Compound 405]	6.07	44.01%	–	–
CN(C)c1cccc(C(=O)OCCCCCCCCc2cc3cc(Oc4ccccc4)ccc3[nH]2)c1 [Compound 617]	2.02	–	19.54	–
O=C(OCCCCCCCCc1cc2cc(Oc3ccccc3)ccc2[nH]1)c1cccnc1 [Compound 662]	8.39	3.27%	–	–
FC(F)(F)c1ccc2cc(CCCCC[n+]3ccc4ccccc4c3)[nH]c2c1 [Compound 506]	21.74	–	98.64	–
c1ccc(Oc2ccc3[nH]c(CCCC[n+]4cccc5ccccc54)cc3c2)cc1 [Compound 457]	3.31	4.67%	–	–
CC(C)c1ccc2[nH]c(CCCCC[n+]3ccc4ccccc4c3)cc2c1 [Compound 536]	32.49	–	96.64	–
FC(F)(F)c1ccc2[nH]c(CCCCCC[n+]3ccc4ccccc4c3)cc2c1 [Compound 579]	12.57	5.57%	–	–
COc1ccc2[nH]c(CCCCC[n+]3ccc4ccccc4c3)cc2c1 [Compound 590]	28.82	–	94.43	–
O=C(OCCCCCCCc1cc2cc(Oc3ccccc3)ccc2[nH]1)c1ccncc1 [Compound 700]	2.54	3.61%	–	–
CC(=O)c1ccc2[nH]c(CCCCOC(=O)c3cccnc3)cc2c1 [Compound 672]	2.63	1.57%	–	–
c1ccc(-c2ccc3[nH]c(CCCCCC[n+]4ccc5ccccc5c4)cc3c2)cc1 [Compound 543]	28.06	5.99%	–	–
CC(C)c1ccc2[nH]c(CCCCOC(=O)c3ccccc3-c3ccccc3)cc2c1 [Compound 630]	10.72	–	13.69	–

Structure (SMILES)	% Inhibition [1, 3] [%]	% Inhibition ([2]; concentration screened 10 uM)	% Inhibition ([2]; concentration screened 100 uM) [%]	% Inhibition ([1]; compound at 0.1 mM (Table 314)) [%]
CC(=O)c1ccc2[nH]c(CCCCOC(=O)c3ccc(N(C)C)cc3)cc2c1 [Compound 636]	17.36	–	6.72	–
COC(=O)c1ccc2[nH]c(CCCCCCCC[n+]3ccc4ccccc4c3)cc2c1 [Compound 599]	19.31	–	44.14	–
COC(=O)c1ccc2[nH]c(CCCCCCC[n+]3ccc4ccccc4c3)cc2c1 [Compound 598]	43.33	8.86%	–	–
CC(C)c1ccc2[nH]c(CCC[n+]3cccc4ccccc43)cc2c1 [Compound 426]	–	16.57%	–	5.49
O=[N+]([O-])c1cc([N+](=O)[O-])c2[nH]c(CCC[n+]3ccccc3)cc2c1 [Compound 306]	33.93	4.32%	–	–
FC(F)(F)c1ccc2[nH]c(CCCC[n+]3ccccc3)cc2c1 [Compound 361]	–	5.57%	–	16.08
CC(=O)c1ccc2[nH]c(CCCCCC[n+]3ccccc3)cc2c1 [Compound 369]	35.33	–	100.00	–
CCCCc1ccc2[nH]c(CCCCCC[n+]3cccc4ccccc43)cc2c1 [Compound 423]	12.09	16.85%	–	–
O=C(c1ccccc1)c1ccc2[nH]c(CCCCCCCC[n+]3ccccc3)cc2c1 [Compound 359]	35.55	–	1.01	–
COc1ccc2c(ccn2CCCCCCOC(=O)Cc2ccc([N+](C)(C)C)cc2)c1 [Compound 742]	28.20	2.13%	–	–
Fc1ccc2[nH]c(CCCCC[n+]3ccc4ccccc4c3)cc2c1 [Compound 560]	46.91	–	98.43	–
CC(=O)c1ccc2[nH]c(CCCCC[n+]3ccc4ccccc4c3)cc2c1 [Compound 584]	68.79	–	96.07	–
Fc1ccc2[nH]c(CCCCC[n+]3cccc4ccccc43)cc2c1 [Compound 452]	20.04	8.22%	–	–
CC(=O)c1ccc2[nH]c(CCCC[n+]3ccccc3)cc2c1 [Compound 367]	9.72	5.64% and 5.22%	–	–
O=C(c1ccccc1)c1ccc2[nH]c(CCCCCC[n+]3ccc4ccccc4c3)cc2c1 [Compound 573]	26.24	16.09%	–	–
CCCCc1ccc2[nH]c(CCC[n+]3ccccc3)cc2c1 [Compound 312]	–	4.60%	–	10.25
O=[N+]([O-])c1ccc2[nH]c(CCC[n+]3cccc4ccccc43)cc2c1 [Compound 438]	9.45	5.29%	–	–
c1ccc(Oc2ccc3[nH]c(CCCCC[n+]4ccc5ccccc5c4)cc3c2)cc1 [Compound 566]	29.72	–	98.21	–
O=C(O)c1ccc2[nH]c(CCCCCC[n+]3ccc4ccccc4c3)cc2c1 [Compound 603]	51.72	1.60%	–	–
c1ccc2[nH]c(CCCCCCC[n+]3cccc4ccccc43)cc2c1 [Compound 394]	4.62	7.03%	–	–

From US6727237B2, “Inhibitors of bacterial NAD synthetase” (priority 1998, dated 2004)
